Measurements as given in patent publication US20060216238A1, “Compositions and methods for targeting or imaging a tissue in a vertebrate subject” (priority 2005, published 2006).

How the values were obtained:
[1] = RT-PCR detection of CPMV RNA in tissues of mice inoculated i.v.; conditions: for CPMV RNA detected in bone marrow, mice positive/examined / CPMV RNA detected in brain, mice positive/examined / CPMV RNA detected in duodenum, mice positive/examined / CPMV RNA detected in ileum, mice positive/examined / CPMV RNA detected in jejunum, mice positive/examined / CPMV RNA detected in kidney, mice positive/examined / CPMV RNA detected in liver, mice positive/examined / CPMV RNA detected in lung, mice positive/examined / CPMV RNA detected in spleen, mice positive/examined / CPMV RNA detected in stomach, mice positive/examined: i.v.
[2] = test system: HUVECS stimulated with vegf; assay: Endothelial cell proliferation assay using CFDA; type: cell-based, human; conditions: 30 ug/ml; listed as wt CPMV
Experimental: Measure in vitro angiogenesis by endothelial cell proliferation assay. HUVECs were plated in 96 well plates at 10^4 cells/well in 200 ul EGM2 complete medium. Cells were incubated for 24 h at 37° C. in 5% CO2. cells were then washed once in PBS and incubated in serum free, glucose free medium for 24 h to suppress cell growth. Further, the cells were exposed to various treatments like 10% FBS or VEGF165 in the presence or absence of the targeting CPMV chimeras. Wild type CPMV was used as a control. After 48 h incubation, 1 μl of CFDA was added to the wells and the plated were incubated for additional 24 h. The cells were then placed on ice, washed in PBS 3× and finally fixed in cold 10% TCA for 10 minutes. After washing, the cells were lysed and the CFDA incorporation was read at 488 nm.

[3] = Stability of CPMV particles in simulated gastric conditions (SGF, SIF); type: in vitro ADME
Experimental: (§1) Stability of CPMV particles in simulated gastric conditions. Simulated gastric fluid (SGF) and simulated intestinal fluid (SIF) were prepared according to Takagi et al. Takagi et al., Biol. Pharm. Bull 26:969-973, 2003. Briefly, pepsin (3.8 mg; Sigma) was dissolved into 5 ml of gastric control fluid (2 mg/ml NaCl, pH 2.0). SIF was prepared by dissolving pancreatin, (10 mg/ml; Sigma) in intestinal control fluid (0.05 M […], pH 6.8). Both solutions were used within the same day. SGF (400 μl) was first incubated at 37° C. for 2 minutes before addition of CPMV (200 μg), giving a ratio of 10 U of pepsin activity/μg of CPMV. The tube contents were mixed by mild vortexing and the tube was immediately placed in a 37° C. water bath for time points ranging from 0-60 minutes, followed by neutralization with 70 μl of 200 mM sodium bicarbonate solution. Similarly, SIF was incubated at 37° C. for 2 minutes before addition of CPMV (200 μg) and the tube contents were placed in a 37° C. water bath for time points up to 120 minutes. Aliquots of virus exposed to SGF or SIF were mixed with 5 μl of NuPAGE 4× LDS-sample buffer, run on 4-12% SDS-PAGE gels, and stained with Simply Blue Safe Stain (Invitrogen). […]

Flt-1 receptor (VEGFR1) = Flt-1 receptor (VEGFR1) (Homo sapiens, UniProt P17948); assay: Binding and competition assays using ELISA
Flt-1 receptor (VEGFR1), sequence (P17948 27-1338): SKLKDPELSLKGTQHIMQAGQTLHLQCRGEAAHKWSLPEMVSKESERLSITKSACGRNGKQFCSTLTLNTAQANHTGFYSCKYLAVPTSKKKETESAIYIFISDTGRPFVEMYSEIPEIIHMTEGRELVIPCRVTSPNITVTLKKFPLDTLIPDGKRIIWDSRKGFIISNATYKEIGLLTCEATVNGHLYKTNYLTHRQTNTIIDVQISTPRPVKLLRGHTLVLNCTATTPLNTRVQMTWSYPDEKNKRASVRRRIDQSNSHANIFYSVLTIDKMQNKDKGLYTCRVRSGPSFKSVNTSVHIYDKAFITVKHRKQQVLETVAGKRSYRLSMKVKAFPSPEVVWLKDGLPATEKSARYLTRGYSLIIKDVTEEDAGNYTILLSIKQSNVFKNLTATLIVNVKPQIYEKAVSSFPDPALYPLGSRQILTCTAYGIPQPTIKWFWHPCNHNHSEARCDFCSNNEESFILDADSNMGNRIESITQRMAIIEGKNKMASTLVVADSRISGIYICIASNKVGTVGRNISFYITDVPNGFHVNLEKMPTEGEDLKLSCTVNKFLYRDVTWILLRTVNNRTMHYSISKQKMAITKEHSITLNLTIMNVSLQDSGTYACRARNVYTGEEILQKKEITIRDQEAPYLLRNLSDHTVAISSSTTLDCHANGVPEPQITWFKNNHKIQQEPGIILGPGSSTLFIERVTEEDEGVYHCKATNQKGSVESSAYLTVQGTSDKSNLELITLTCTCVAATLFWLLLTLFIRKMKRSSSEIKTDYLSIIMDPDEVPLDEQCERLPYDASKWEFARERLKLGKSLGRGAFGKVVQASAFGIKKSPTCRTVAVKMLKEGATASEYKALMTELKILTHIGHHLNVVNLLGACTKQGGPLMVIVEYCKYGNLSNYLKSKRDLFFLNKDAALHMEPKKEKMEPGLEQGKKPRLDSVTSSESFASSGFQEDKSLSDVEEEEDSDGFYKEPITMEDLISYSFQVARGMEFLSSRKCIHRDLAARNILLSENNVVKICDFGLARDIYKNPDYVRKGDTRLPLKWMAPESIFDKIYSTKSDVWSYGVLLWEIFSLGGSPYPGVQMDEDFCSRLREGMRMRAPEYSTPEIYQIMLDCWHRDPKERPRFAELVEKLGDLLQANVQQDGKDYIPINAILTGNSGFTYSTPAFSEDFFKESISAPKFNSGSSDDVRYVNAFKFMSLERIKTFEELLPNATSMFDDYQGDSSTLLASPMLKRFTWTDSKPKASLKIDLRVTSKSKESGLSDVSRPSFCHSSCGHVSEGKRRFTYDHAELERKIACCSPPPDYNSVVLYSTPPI

cowpea plants = assay: Infectivity of SGF- or SIF-treated CPMV on cowpea plants; parameters: species or system Vigna unguiculata; conditions: SGF 60 minutes or SIF 120 minutes, day 14 post-inoculation
Experimental: as §1

KDR receptor (VEGFR2) = KDR receptor (VEGFR2) (Homo sapiens, UniProt P35968); assay: Binding assay using ELISA
KDR receptor (VEGFR2), sequence (P35968 20-1356): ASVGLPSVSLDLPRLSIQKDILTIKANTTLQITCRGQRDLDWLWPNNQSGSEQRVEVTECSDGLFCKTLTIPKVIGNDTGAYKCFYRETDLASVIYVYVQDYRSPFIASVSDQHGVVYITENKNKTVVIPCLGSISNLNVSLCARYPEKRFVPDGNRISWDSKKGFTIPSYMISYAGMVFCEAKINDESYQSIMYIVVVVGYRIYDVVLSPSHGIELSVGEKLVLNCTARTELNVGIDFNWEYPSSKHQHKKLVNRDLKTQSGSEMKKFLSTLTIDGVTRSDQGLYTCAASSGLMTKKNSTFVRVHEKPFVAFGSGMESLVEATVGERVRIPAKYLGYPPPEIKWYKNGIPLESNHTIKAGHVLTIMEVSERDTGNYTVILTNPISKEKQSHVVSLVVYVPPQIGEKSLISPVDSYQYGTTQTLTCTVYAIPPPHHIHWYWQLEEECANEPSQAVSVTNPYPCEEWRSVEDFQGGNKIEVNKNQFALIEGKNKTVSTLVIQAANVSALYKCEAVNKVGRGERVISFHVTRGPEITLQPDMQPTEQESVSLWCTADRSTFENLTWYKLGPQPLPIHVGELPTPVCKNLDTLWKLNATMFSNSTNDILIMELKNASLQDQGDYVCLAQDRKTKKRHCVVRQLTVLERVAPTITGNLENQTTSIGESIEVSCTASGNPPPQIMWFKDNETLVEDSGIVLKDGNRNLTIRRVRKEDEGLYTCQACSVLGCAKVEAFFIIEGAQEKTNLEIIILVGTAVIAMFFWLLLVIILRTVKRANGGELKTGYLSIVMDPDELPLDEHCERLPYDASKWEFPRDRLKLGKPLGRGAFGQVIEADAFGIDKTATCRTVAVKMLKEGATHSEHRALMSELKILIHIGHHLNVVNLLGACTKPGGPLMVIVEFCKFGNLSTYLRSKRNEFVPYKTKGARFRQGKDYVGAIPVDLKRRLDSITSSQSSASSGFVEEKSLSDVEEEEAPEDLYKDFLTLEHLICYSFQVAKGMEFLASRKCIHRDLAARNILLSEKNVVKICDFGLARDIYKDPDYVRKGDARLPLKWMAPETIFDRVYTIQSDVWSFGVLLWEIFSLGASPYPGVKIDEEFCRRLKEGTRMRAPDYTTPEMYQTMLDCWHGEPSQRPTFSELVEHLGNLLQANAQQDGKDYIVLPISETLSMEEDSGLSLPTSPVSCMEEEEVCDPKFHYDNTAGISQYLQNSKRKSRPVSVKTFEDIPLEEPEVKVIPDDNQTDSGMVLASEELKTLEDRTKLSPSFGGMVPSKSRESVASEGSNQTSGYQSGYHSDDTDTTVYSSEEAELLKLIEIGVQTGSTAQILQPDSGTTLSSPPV

cowpea mosaic virus [CPMV]
CPMV RNA in any tissues examined ([1]; day 5 or day 7 post-inoculation): not detected | CPMV RNA detected in bone marrow, mice positive/examined ([1]; D1, Non-perfused): 3/3 | CPMV RNA detected in brain, mice positive/examined ([1]; D1, Non-perfused): 3/3 | CPMV RNA detected in duodenum, mice positive/examined ([1]; D1, Non-perfused): 3/3 | CPMV RNA detected in ileum, mice positive/examined ([1]; D1, Non-perfused): 3/3 | CPMV RNA detected in jejunum, mice positive/examined ([1]; D1, Non-perfused): 3/3 | CPMV RNA detected in kidney, mice positive/examined ([1]; D1, Non-perfused): 3/3 | CPMV RNA detected in liver, mice positive/examined ([1]; D1, Non-perfused): 2/3 | CPMV RNA detected in lung, mice positive/examined ([1]; D1, Non-perfused): 3/3 | CPMV RNA detected in spleen, mice positive/examined ([1]; D1, Non-perfused): 3/3 | CPMV RNA detected in stomach, mice positive/examined ([1]; D1, Non-perfused): 3/3 | CPMV RNA detected in bone marrow, mice positive/examined ([1]; D1, Perfused): 3/3 | CPMV RNA detected in brain, mice positive/examined ([1]; D1, Perfused): 3/3 | CPMV RNA detected in duodenum, mice positive/examined ([1]; D1, Perfused): 2/3 | CPMV RNA detected in ileum, mice positive/examined ([1]; D1, Perfused): 3/3 | CPMV RNA detected in jejunum, mice positive/examined ([1]; D1, Perfused): 3/3 | CPMV RNA detected in kidney, mice positive/examined ([1]; D1, Perfused): 3/3 | CPMV RNA detected in liver, mice positive/examined ([1]; D1, Perfused): 3/3 | CPMV RNA detected in lung, mice positive/examined ([1]; D1, Perfused): 3/3 | CPMV RNA detected in spleen, mice positive/examined ([1]; D1, Perfused): 3/3 | CPMV RNA detected in stomach, mice positive/examined ([1]; D1, Perfused): 3/3 | CPMV RNA detected in bone marrow, mice positive/examined ([1]; D2, Non-perfused): 3/3 | CPMV RNA detected in brain, mice positive/examined ([1]; D2, Non-perfused): 3/3 | CPMV RNA detected in duodenum, mice positive/examined ([1]; D2, Non-perfused): 3/3 | CPMV RNA detected in ileum, mice positive/examined ([1]; D2, Non-perfused): 3/3 | CPMV RNA detected in jejunum, mice positive/examined ([1]; D2, Non-perfused): 3/3 | CPMV RNA detected in kidney, mice positive/examined ([1]; D2, Non-perfused): 3/3 | CPMV RNA detected in liver, mice positive/examined ([1]; D2, Non-perfused): 3/3 | CPMV RNA detected in lung, mice positive/examined ([1]; D2, Non-perfused): 3/3 | CPMV RNA detected in spleen, mice positive/examined ([1]; D2, Non-perfused): 3/3 | CPMV RNA detected in stomach, mice positive/examined ([1]; D2, Non-perfused): 3/3 | CPMV RNA detected in bone marrow, mice positive/examined ([1]; D2, Perfused): 3/3 | CPMV RNA detected in brain, mice positive/examined ([1]; D2, Perfused): 2/3 | CPMV RNA detected in duodenum, mice positive/examined ([1]; D2, Perfused): 3/3 | CPMV RNA detected in ileum, mice positive/examined ([1]; D2, Perfused): 3/3 | CPMV RNA detected in jejunum, mice positive/examined ([1]; D2, Perfused): 3/3 | CPMV RNA detected in kidney, mice positive/examined ([1]; D2, Perfused): 3/3 | CPMV RNA detected in liver, mice positive/examined ([1]; D2, Perfused): 3/3 | CPMV RNA detected in lung, mice positive/examined ([1]; D2, Perfused): 3/3 | CPMV RNA detected in spleen, mice positive/examined ([1]; D2, Perfused): 3/3 | CPMV RNA detected in stomach, mice positive/examined ([1]; D2, Perfused): 3/3 | CPMV RNA detected in bone marrow, mice positive/examined ([1]; D3, Non-perfused): 3/3 | CPMV RNA detected in brain, mice positive/examined ([1]; D3, Non-perfused): 3/3 | CPMV RNA detected in duodenum, mice positive/examined ([1]; D3, Non-perfused): 2/3 | CPMV RNA detected in ileum, mice positive/examined ([1]; D3, Non-perfused): 3/3 | CPMV RNA detected in jejunum, mice positive/examined ([1]; D3, Non-perfused): 3/3 | CPMV RNA detected in kidney, mice positive/examined ([1]; D3, Non-perfused): 3/3 | CPMV RNA detected in liver, mice positive/examined ([1]; D3, Non-perfused): 3/3 | CPMV RNA detected in lung, mice positive/examined ([1]; D3, Non-perfused): 3/3 | CPMV RNA detected in spleen, mice positive/examined ([1]; D3, Non-perfused): 3/3 | CPMV RNA detected in stomach, mice positive/examined ([1]; D3, Non-perfused): 1/3 | CPMV RNA detected in bone marrow, mice positive/examined ([1]; D3, Perfused): 3/3 | CPMV RNA detected in brain, mice positive/examined ([1]; D3, Perfused): 3/3 | CPMV RNA detected in duodenum, mice positive/examined ([1]; D3, Perfused): 3/3 | CPMV RNA detected in ileum, mice positive/examined ([1]; D3, Perfused): 3/3 | CPMV RNA detected in jejunum, mice positive/examined ([1]; D3, Perfused): 3/3 | CPMV RNA detected in kidney, mice positive/examined ([1]; D3, Perfused): 3/3 | CPMV RNA detected in liver, mice positive/examined ([1]; D3, Perfused): 3/3 | CPMV RNA detected in lung, mice positive/examined ([1]; D3, Perfused): 3/3 | CPMV RNA detected in spleen, mice positive/examined ([1]; D3, Perfused): 3/3 | CPMV RNA detected in stomach, mice positive/examined ([1]; D3, Perfused): 3/3 | effect on cell growth/proliferation [2]: did not affect cell growth/proliferation | integrity on Coomassie-stained gel after SGF ([3]; SGF, pepsin pH 2.0, 37° C., 0-60 minutes): remained intact | integrity on Coomassie-stained gel after SIF ([3]; SIF, pancreatin pH 6.8, up to 120 minutes): remained intact | binding to Flt-1 receptor in ELISA (Flt-1 receptor (VEGFR1)): did not show any detectable binding | infectivity on cowpea plants after SGF or SIF (cowpea plants): infectivity similar to untreated CPMV | binding to KDR receptor in ELISA (KDR receptor (VEGFR2)): did not show any detectable binding
